Read-outs that look alike come from different tables or passages of the source.

Common to all, as to experiment: TGFα-shedding assay-based GPCR screening with chimeric Gα subunit proteins
Common to all, as to format: cell-based

Test [1] has as its target T1, 348 GPCRs (Homo sapiens, UniProt P47804).
T1 construct: expressed in transfected cells; host or cells: HEK293A
T1 sequence (P47804 1-291): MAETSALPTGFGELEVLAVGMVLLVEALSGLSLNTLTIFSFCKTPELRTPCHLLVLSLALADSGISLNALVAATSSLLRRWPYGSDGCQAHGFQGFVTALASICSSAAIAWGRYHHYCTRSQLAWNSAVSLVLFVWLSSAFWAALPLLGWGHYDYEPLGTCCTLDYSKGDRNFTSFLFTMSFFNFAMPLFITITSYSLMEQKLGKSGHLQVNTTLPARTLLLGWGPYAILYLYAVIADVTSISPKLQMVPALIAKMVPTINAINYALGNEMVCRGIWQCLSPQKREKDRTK
Particulars: 10µM, Favipiravir 100μM.

The target in test [2] is T2, 348 GPCRs (Homo sapiens, UniProt Q9BZJ6).
T2 construct: expressed in transfected cells; host or cells: HEK293A
T2 sequence (Q9BZJ6 whole entry): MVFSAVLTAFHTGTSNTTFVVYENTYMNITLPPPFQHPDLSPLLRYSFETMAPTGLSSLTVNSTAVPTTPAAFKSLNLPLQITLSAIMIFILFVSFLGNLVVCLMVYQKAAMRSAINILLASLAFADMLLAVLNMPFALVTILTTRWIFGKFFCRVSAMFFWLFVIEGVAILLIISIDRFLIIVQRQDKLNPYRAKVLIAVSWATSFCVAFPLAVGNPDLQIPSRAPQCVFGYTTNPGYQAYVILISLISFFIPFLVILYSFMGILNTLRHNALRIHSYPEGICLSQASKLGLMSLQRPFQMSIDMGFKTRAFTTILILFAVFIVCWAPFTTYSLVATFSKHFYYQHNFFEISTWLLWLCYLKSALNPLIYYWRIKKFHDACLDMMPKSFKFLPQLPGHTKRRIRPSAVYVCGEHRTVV

The target in test [3] is T3, 348 GPCRs (Homo sapiens, UniProt Q9Y5Y4).
T3 construct: expressed in transfected cells; host or cells: HEK293A
T3 sequence (Q9Y5Y4 1-395): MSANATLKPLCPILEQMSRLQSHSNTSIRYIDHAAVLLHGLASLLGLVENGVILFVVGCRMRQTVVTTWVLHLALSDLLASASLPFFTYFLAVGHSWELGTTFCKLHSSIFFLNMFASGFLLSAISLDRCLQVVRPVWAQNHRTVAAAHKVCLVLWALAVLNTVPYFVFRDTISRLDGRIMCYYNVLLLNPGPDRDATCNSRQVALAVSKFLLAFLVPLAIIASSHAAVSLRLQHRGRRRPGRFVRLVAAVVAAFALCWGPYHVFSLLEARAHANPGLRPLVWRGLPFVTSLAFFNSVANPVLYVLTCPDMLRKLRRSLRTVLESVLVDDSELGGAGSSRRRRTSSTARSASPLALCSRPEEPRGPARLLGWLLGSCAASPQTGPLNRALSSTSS
As to conditions: 10µM, Favipiravir 100μM.

The target in test [4] is T4, 348 GPCRs (Homo sapiens, UniProt Q13258).
T4 sequence (Q13258 1-359): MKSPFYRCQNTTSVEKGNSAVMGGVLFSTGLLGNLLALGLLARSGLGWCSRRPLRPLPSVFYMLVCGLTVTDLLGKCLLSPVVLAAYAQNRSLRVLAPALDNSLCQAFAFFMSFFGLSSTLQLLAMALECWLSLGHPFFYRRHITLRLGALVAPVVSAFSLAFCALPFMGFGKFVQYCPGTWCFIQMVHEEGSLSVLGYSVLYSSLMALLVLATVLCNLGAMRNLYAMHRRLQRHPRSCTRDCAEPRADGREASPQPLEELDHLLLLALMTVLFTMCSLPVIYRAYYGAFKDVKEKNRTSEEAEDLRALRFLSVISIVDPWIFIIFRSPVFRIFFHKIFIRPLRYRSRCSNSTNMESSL
Particulars: 10µM, Favipiravir 100μM.

For test [5], the target named is T5, 348 GPCRs (Homo sapiens, UniProt Q86SM8).
T5 construct: expressed in transfected cells; host or cells: HEK293A
T5 sequence (Q86SM8 whole entry): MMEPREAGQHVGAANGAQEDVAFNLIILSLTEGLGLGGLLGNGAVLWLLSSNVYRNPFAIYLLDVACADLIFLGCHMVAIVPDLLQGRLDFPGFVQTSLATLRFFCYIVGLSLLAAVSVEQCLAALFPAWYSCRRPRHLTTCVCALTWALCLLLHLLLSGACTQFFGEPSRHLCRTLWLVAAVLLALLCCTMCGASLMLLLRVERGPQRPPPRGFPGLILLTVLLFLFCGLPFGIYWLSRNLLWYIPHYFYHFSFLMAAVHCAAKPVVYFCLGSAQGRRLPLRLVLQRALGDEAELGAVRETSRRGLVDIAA
As to conditions: 10µM, Favipiravir 100μM.

In test [6] the target is T6, 348 GPCRs (Homo sapiens, UniProt O43613).
T6 construct: expressed in transfected cells; host or cells: HEK293A
T6 sequence (O43613 1-425): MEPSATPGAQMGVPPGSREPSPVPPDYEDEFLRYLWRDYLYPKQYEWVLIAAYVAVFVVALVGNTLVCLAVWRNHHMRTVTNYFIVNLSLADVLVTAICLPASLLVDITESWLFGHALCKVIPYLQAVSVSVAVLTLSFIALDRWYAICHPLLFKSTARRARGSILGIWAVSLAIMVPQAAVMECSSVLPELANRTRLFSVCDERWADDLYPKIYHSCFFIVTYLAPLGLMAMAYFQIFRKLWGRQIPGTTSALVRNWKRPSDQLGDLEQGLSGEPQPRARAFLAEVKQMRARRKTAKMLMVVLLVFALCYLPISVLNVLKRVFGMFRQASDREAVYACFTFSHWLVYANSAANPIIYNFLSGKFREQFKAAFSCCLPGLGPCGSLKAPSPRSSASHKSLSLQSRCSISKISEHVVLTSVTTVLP
As to conditions: 10µM, Favipiravir 100μM.

The target of test [7] is T7, 348 GPCRs (Homo sapiens, UniProt Q9NSD7).
T7 construct: expressed in transfected cells; host or cells: HEK293A
T7 sequence (Q9NSD7 1-469): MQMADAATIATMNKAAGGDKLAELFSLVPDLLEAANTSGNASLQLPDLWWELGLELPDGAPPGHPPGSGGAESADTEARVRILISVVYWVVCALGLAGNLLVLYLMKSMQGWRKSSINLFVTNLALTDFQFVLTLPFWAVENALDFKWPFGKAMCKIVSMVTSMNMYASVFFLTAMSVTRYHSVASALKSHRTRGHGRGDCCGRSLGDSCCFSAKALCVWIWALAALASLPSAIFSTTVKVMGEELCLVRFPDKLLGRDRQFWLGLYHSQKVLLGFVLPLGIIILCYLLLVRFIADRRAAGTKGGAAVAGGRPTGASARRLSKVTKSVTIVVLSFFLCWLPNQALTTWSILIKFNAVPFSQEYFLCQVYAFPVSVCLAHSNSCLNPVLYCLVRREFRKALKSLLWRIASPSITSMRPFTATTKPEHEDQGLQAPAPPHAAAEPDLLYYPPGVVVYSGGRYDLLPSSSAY
Particulars: RXFP3 (relaxin/insulin-like family peptide receptor 3); 10µM, Favipiravir 100μM.

The target in test [8] is 348 GPCRs (Homo sapiens, UniProt P21453). As to conditions: 10µM, Favipiravir 100μM.
Chain of 348 GPCRs (Homo sapiens, UniProt P21453) (P21453 whole entry): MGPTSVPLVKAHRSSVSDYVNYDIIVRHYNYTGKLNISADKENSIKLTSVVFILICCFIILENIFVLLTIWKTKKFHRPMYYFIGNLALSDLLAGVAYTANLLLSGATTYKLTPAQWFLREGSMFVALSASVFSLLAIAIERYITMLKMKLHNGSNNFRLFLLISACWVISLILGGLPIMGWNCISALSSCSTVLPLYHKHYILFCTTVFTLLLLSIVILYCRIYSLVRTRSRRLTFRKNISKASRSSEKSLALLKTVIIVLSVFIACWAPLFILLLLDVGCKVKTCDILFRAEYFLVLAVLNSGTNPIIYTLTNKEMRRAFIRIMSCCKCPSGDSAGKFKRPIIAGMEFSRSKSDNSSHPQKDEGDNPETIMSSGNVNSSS
For test [9], the target named is T8, 348 GPCRs (Homo sapiens, UniProt Q8IZP9).
T8 construct: expressed in transfected cells; host or cells: HEK293A
T8 sequence (Q8IZP9 38-1017): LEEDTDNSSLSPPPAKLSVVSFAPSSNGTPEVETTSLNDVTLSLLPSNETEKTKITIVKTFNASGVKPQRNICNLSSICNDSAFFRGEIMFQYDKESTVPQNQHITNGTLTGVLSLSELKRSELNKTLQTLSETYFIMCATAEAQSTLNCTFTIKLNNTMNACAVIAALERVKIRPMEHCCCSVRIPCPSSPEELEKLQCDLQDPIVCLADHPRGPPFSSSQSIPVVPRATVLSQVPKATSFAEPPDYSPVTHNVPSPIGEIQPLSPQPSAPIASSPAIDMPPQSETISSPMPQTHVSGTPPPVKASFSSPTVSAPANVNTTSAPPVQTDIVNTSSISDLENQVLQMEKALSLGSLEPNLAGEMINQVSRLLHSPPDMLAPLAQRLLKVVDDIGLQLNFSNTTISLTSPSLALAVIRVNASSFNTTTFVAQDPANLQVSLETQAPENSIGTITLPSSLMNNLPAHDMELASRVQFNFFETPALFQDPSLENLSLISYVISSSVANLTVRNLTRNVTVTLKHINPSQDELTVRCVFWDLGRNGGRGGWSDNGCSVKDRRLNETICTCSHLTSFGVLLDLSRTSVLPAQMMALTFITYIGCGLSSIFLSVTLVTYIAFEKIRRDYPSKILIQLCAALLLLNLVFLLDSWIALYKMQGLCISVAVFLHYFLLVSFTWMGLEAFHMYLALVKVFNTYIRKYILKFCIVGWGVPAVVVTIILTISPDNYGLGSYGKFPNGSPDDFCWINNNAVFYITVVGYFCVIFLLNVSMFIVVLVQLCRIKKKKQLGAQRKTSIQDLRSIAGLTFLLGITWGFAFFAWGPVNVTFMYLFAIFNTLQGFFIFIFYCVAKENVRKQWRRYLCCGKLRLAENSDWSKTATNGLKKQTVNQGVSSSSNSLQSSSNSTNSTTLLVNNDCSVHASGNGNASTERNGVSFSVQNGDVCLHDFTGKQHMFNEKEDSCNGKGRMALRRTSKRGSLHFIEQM

The target in test [10] is T9, 348 GPCRs (Homo sapiens, UniProt P30550).
T9 construct: expressed in transfected cells; host or cells: HEK293A
T9 sequence (P30550 whole entry): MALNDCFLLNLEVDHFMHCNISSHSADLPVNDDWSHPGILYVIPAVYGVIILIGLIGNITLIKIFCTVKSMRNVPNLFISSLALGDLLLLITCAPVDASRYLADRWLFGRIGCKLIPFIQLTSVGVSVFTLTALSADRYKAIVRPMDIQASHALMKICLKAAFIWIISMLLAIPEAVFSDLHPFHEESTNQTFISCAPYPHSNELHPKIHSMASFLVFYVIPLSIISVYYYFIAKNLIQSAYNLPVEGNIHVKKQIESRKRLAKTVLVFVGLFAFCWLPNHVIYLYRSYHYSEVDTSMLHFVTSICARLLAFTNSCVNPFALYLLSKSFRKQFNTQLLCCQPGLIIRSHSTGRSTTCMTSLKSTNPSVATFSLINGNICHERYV
Particulars: 10µM, Favipiravir 100μM.

The mark [11] stands for this setting: RGR (Retinal G protein coupled receptor), read-out: % GPCR activation compared to TPA.
Setting [12] is: GPCR GPR63 (G Protein-Coupled Receptor 63), read-out: % GPCR activation compared to TPA.
Where [13] appears, read: DP2 (prostaglandin D2 receptor 2), read-out: % GPCR activation compared to TPA.
The mark [14] stands for this setting: DP (prostaglandin D2 receptor), read-out: % GPCR activation compared to TPA.
The mark [15] stands for this setting: MRGE (MAS-related GPR, member E), read-out: % GPCR activation compared to TPA.
The mark [16] stands for this setting: MRGPRE (MAS-related GPR, member E), read-out: % GPCR activation compared to TPA.
The mark [17] stands for this setting: HCRTR1 (hypocretin (orexin) receptor 1), read-out: % GPCR activation compared to TPA.
Where [18] appears, read: S1PR1 (sphingosine-1-phosphate receptor 1), read-out: % GPCR activation compared to TPA.
Where [19] appears, read: GPCR GPR64 (G protein-coupled receptor 64), read-out: % GPCR activation compared to TPA.
Setting [20] is: GRPR (gastrin-releasing peptide receptor), read-out: % GPCR activation compared to TPA.
[21] abbreviates: read-out: % GPCR activation compared to TPA, RGR (Retinal G protein coupled receptor).
The mark [22] stands for this setting: read-out: % GPCR activation compared to TPA, GPCR GPR63 (G Protein-Coupled Receptor 63).
Where [23] appears, read: read-out: % GPCR activation compared to TPA, DP2 (prostaglandin D2 receptor 2).
The mark [24] stands for this setting: read-out: % GPCR activation compared to TPA, DP (prostaglandin D2 receptor).
[25] abbreviates: read-out: % GPCR activation compared to TPA, MRGE (MAS-related GPR, member E).
[26] abbreviates: read-out: % GPCR activation compared to TPA, MRGPRE (MAS-related GPR, member E).
Where [27] appears, read: read-out: % GPCR activation compared to TPA, HCRTR1 (hypocretin (orexin) receptor 1).
Where [28] appears, read: read-out: % GPCR activation compared to TPA, S1PR1 (sphingosine-1-phosphate receptor 1).
[29] abbreviates: read-out: % GPCR activation compared to TPA, GPCR GPR64 (G protein-coupled receptor 64).
Setting [30] is: read-out: % GPCR activation compared to TPA, GRPR (gastrin-releasing peptide receptor).

As to `CC(C)C(=O)OC[C@H]1O[C@@H](n2ccc(NO)nc2=O)[C@H](O)[C@@H]1O` [molnupiravir], the activation at 100 µM was -1.3% at 348 GPCRs [1] (setting [11]); 0.374% on 348 GPCRs [3] (setting [13]); -0.606% at 348 GPCRs [4] (setting [14]); -1.17% at 348 GPCRs [5] (setting [15]); -1.32% on 348 GPCRs [5] (setting [16]); 1.7% at 348 GPCRs [6] (setting [17]). The activation at 10 µM on 348 GPCRs [2] (setting [12]) is -0.167%; at 348 GPCRs [8] (setting [18]), -2.19%; on 348 GPCRs [9] (setting [19]), -5.62%; at 348 GPCRs [10] (setting [20]) it was -3.58%. Also, on 348 GPCRs [7], the “% GPCR activation compared to TPA” value was -2.923%.

As for `CC(C)OC(=O)[C@H](C)N[P@](=O)(OC[C@H]1O[C@@H](n2ccc(=O)[nH]c2=O)[C@](C)(F)[C@@H]1O)Oc1ccccc1` [sofosbuvir], the activation at 100 µM at 348 GPCRs [1] (setting [21]) is -3.06%; on 348 GPCRs [3] (setting [23]), 0.675%; at 348 GPCRs [4] (setting [24]) it was -0.617%; on 348 GPCRs [5] (setting [25]), -1.05%; on 348 GPCRs [5] (setting [26]) it was 0.355%; on 348 GPCRs [6] (setting [27]) it was -0.162%. In addition, the activation at 10 µM is 1.22% at 348 GPCRs [2] (setting [22]), 0.0873% on 348 GPCRs [8] (setting [28]), -7.7% at 348 GPCRs [9] (setting [29]) and -1.24% on 348 GPCRs [10] (setting [30]). Besides, the “% GPCR activation compared to TPA” value at 348 GPCRs [7] is given as -2.192%.

Regarding `N#C[C@@]1(c2ccc3c(N)ncnn23)O[C@H](CO)[C@@H](O)[C@H]1O` [GS441524], the activation at 100 µM at 348 GPCRs [1] (setting [11]) is -2.11%; at 348 GPCRs [3] (setting [13]) it was -0.745%; at 348 GPCRs [4] (setting [14]), -1.84%; on 348 GPCRs [5] (setting [15]) it was -0.92%; on 348 GPCRs [5] (setting [16]), -0.879%; on 348 GPCRs [6] (setting [17]), 16.9%. The activation at 10 µM was 2.45% on 348 GPCRs [2] (setting [12]), -1.43% on 348 GPCRs [8] (setting [18]), -4.34% at 348 GPCRs [9] (setting [19]) and -1.56% at 348 GPCRs [10] (setting [20]). Also, the “% GPCR activation compared to TPA” value on 348 GPCRs [7] came to 1.985%.

Regarding `NC(=O)c1nc(F)cnc1O` [favipiravir, 6-fluoro-3-hydroxy-2-pyrazinecarboxamide], the activation at 100 µM at 348 GPCRs [1] (setting [11]) is -1.43%; at 348 GPCRs [2] (GPCR GPR63 (G Protein-Coupled Receptor 63), 100μM, read-out: % GPCR activation compared to TPA), -0.607%; on 348 GPCRs [3] (setting [13]), 0.119%; on 348 GPCRs [4] (setting [14]), -1.59%; at 348 GPCRs [5] (setting [15]) it was -2.09%; on 348 GPCRs [5] (setting [16]), -1.34%. The activation at 100 µM on 348 GPCRs [6] (setting [17]) is 12.9%; on 348 GPCRs [9] (GPCR GPR64 (G protein-coupled receptor 64), 100μM, read-out: % GPCR activation compared to TPA) it was -2.31%. At 348 GPCRs [7], the “% GPCR activation compared to TPA” value came to 1.399%. Moreover, the activation at 10 µM on 348 GPCRs [8] (setting [18]) was -0.836%; at 348 GPCRs [10] (setting [20]), -1.14%.

As to `CCC(CC)COC(=O)[C@H](C)N[P@](=O)(OC[C@H]1O[C@@](C#N)(c2ccc3c(N)ncnn23)[C@H](O)[C@@H]1O)Oc1ccccc1` [remdesivir], the activation at 100 µM on 348 GPCRs [1] (setting [21]) is -0.554%; on 348 GPCRs [3] (setting [23]) it was 1.87%; at 348 GPCRs [4] (setting [24]), 6.06%; on 348 GPCRs [5] (setting [25]), -2.75%; on 348 GPCRs [5] (setting [26]), -1.08%; on 348 GPCRs [6] (setting [27]), 16.7%. Besides, the activation at 10 µM is 1.1% at 348 GPCRs [2] (setting [22]), -1.92% on 348 GPCRs [8] (setting [28]), -4.08% at 348 GPCRs [9] (setting [29]) and -2.02% on 348 GPCRs [10] (setting [30]). On 348 GPCRs [7], the “% GPCR activation compared to TPA” value is recorded as 3.551%.

The record behind these values is publication PMC10175918 (Communications Biology, 2023).
